According to patent publication US12630579B2, “Proteolysis targeting compound with tissue targeting capability and use thereof” (TAI BI DI PHARMACEUTICAL TECHNOLOGY (SHIJIAZHUANG) CO. LTD, priority 2020, dated 2026):
In brackets after ≈: the same amount, converted by molar mass.

Columns and labels:
[1] = Solubility test (equilibrium solubility in deionized water, HPLC); type: physicochemical; conditions: thermodynamic from solid, 37° C.
Method: Series solutions of 1 nM/10 nM/100 nM/100 nM/1 uM/10 uM/100 uM/1 mM were prepared according to following steps: WG compounds to be tested in the present application and corresponding compounds of structure A were respectively weighed, dissolved in deionized water, and oscillated at 37° C. for 12 hours to reach dissolution equilibrium. The resulted solutions were filtered 3 times with a filter membrane, and filtrates were collected. Actual concentrations of the compounds in the solutions were determined with HPLC. A curve of actual concentration of the solution—planned concentration of the solution was drawn, and the turning point of the curve indicated the equilibrium concentration of the compounds.

[2] = tested on: Liver cancer cells (HUH-7); assay: Transmembrane test; type: in vitro ADME; conditions: HUH-7, 24 hours, arithmetic mean over concentrations
Method: (§1) Liver cancer cells (HUH-7) were seeded in a 6-well plate at a concentration of 4*10^5 cells/mL, 2 mL per well, and cultured overnight until the cells were adherent to the wall.
(§2) The next day, compound solutions were prepared as follows: WG compounds of present application and corresponding compounds of structure A were respectively weighed, prepared with pure DMSO into mother solutions of high concentration, then gradiently diluted to obtain compound solutions of 10 uM/30 uM/100 uM/150 uM/300 uM in 10% DMSO, and shaken to mix well.
When the cells were adherent to the wall under microscope observation, 200 uL of compound solutions were added to each well with a ratio of compound solution to culture medium at 1:10.
After culture for 24 hours, the culture medium was sucked out with a pipette, and the wells were then washed five times with phosphate buffer, 2 mL each time for 30 seconds, to ensure there were no compound residues in the environment of the cells. Solutions in the wells were thoroughly sucked up, and 150 uL RIPA Lysis Buffer was added into each well. Then the culture was continued on ice for 30 min to lyse the cells. Lysates were collected and centrifuged at […] for 1 h, and supernatants were collected and characterized with HPLC to determine the concentration of the compounds therein.
The solubility and changes of transmembrane efficiency of WG compounds relative to corresponding compounds of structure A were analyzed and calculated. An arithmetic mean value of transmembrane efficiency changes under different concentrations was calculated, thereby obtaining a reference value of the difference of transmembrane efficiency between two groups of compounds.

[3] = tested on: Liver cancer cells (HUH-7); assay: Cell growth inhibition test (cck-8); type: cell-based; conditions: HUH-7, 72 hours
Method: Liver cancer cells (HUH-7) were seeded in a 96-well plate at a concentration of 2*10^4 cells/mL, 100 uL per well, and cultured overnight.
as §2, with “day, the cells were observed microscope to ensure adherence. Compound” for “day, compound”, “10 nM/100 nM/300 nM/1000 nM/3000 nM” for “10 uM/30 uM/100 uM/150 uM/300 uM”
Positive drug solutions in the control group were prepared with the same solvent and method, and only a single dosage was required. In this test, the positive drug solution is 1 uM lenvatinib.
After solution preparation was completed, 10 uL of compound solutions were added into each well of the 96-well plate, three duplicates for each dosage. The plate was gently shaken to allow the cells to repeatedly contact with the compound solutions, and then the plate was placed in an incubator to culture for 72 hours. 72 hours later, the plate was taken out and 10 uL cck-8 reagent was added into each well and shaken gently to mix well. Then the plate was placed in an incubator to culture for two hours. Two hours later, the plate was taken out and analyzed with a microplate reader to measure the absorbance of each well at a wavelength of 450 nm.
A graph can be drawn according to the gradient of concentrations, and the results can be compared directly.

[4] = tested on: target protein in liver cancer cells (HUH-7); assay: Proteolysis test (Western blot of target protein); type: cell-based; set-up: key to Protein content (blackness of experimental group / blank control group): blot blackness of treated / blank control (fraction of control); conditions: HUH-7, 24 hours
Method: as §1
as §2, with “nM/30 nM/100 nM/300 nM/1000 nM/3000 nM” for “uM/30 uM/100 uM/150 uM/300 uM”, “well. 200 uL of compound solutions were added to each well with a ratio of compound solution to culture medium at 1:10.” for “well.”
After culture for 24 hours, the culture medium was sucked out with a pipette, and then the wells were washed 3 times with PBS. Solutions in the wells were thoroughly sucked up, and 150 uL RIPA Lysis Buffer was added into each well. Then the culture was continued on ice for 30 min to lyse the cells.
Lysates were collected and centrifuged at 16000 rpm for 10 minutes. Supernatants were collected and the total protein content was normalized with a BCA kit to determine target protein contents with Western blot.
The results were analyzed with ImageJ. Blackness of each strip was measured and the protein was quantified for comparison analysis according to formula: Protein content=blackness value of the experimental group/blackness value of the blank control group.

Row | Compound | solubility thermodynamic ([1]; 12 hours) [µM] | Transmembrane efficiency relative to corresponding compound of structure A (WGint4) [2] | IC50 [3] [nM] | DC50 [4] [nM] | solubility thermodynamic at 12 h [1] [µM] | Protein content (blackness of experimental group / blank control group) ([4]; dosage 1 nM) | Protein content (blackness of experimental group / blank control group) ([4]; dosage 10 nM) | Protein content (blackness of experimental group / blank control group) ([4]; dosage 30 nM) | Protein content (blackness of experimental group / blank control group) ([4]; dosage 100 nM) | Protein content (blackness of experimental group / blank control group) ([4]; dosage 300 nM) | IC50 ([3]; Homo sapiens) [nM]
1 | CC(=O)N[C@H]1[C@H](OCCCCC(=O)NCCCNC(=O)CCOCC(COCCC(=O)NCCCNC(=O)CCCCO[C@@H]2O[C@H](CO)[C@H](O)[C@H](O)[C@H]2NC(C)=O)(COCCC(=O)NCCCNC(=O)CCCCO[C@@H]2O[C@H](CO)[C@H](O)[C@H](O)[C@H]2NC(C)=O)NC(=O)CCCCCCCCCOP(=O)(O)O[C@@H]2C[C@@H](C(=O)NCc3ccc(-c4scnc4C)cc3)N(C(=O)[C@@H](NC(=O)COCCOCCN(C)C(=O)c3cc(Oc4ccc(NC(=O)Nc5ccc(Cl)c(C(F)(F)F)c5)cc4)ccn3)C(C)(C)C)C2)O[C@H](CO)[C@H](O)[C@@H]1O [WG-3(00400639)] | 255 (≈ 681 µg/mL) | WG-3 is about 15 times | 79.9 | 81.4 | – | – | – | – | – | – | –
2 | COc1cc2c(Oc3ccc(NC(=O)C4(C(=O)Nc5ccc(F)cc5)CC4)cc3F)ccnc2cc1OCCCOCCCOCCC(=O)N[C@H](C(=O)N1C[C@H](OP(=O)(O)OCCCCCCCCCC(=O)NC(COCCC(=O)NCCCNC(=O)CCCCOC2OC(CO)C(O)C(O)C2NC(C)=O)(COCCC(=O)NCCCNC(=O)CCCCOC2OC(CO)C(O)C(O)C2NC(C)=O)COCCC(=O)NCCCNC(=O)CCCCOC2OC(CO)C(O)C(O)C2NC(C)=O)C[C@H]1C(=O)NCc1ccc(-c2scnc2C)cc1)C(C)(C)C (some centres unmarked) [WG-5(00600639)] | – | WG-5 is about 11.5 times | – | – | 731 (≈ 2010 µg/mL) | – | – | – | – | – | –
3 | COc1cc2c(Oc3ccc(NC(=O)C4(C(=O)Nc5ccc(F)cc5)CC4)cc3)ccnc2cc1OCCCOCCCOCCC(=O)N[C@H](C(=O)N1C[C@H](OP(=O)(O)OCCCCCCCCCC(=O)NC(COCCC(=O)NCCCNC(=O)CCCCOC2OC(CO)C(O)C(O)C2NC(C)=O)(COCCC(=O)NCCCNC(=O)CCCCOC2OC(CO)C(O)C(O)C2NC(C)=O)COCCC(=O)NCCCNC(=O)CCCCOC2OC(CO)C(O)C(O)C2NC(C)=O)C[C@H]1C(=O)NCc1ccc(-c2scnc2C)cc1)C(C)(C)C (some centres unmarked) [WG-4(00500639)] | – | WG-4 is about 17.1 times | – | – | 476 (≈ 1300 µg/mL) | – | – | – | – | – | –
4 | COc1cc2nccc(Oc3ccc(NC(=O)NC4CC4)c(Cl)c3)c2cc1C(=O)NCCCCCCC(=O)N[C@H](C(=O)N1C[C@H](OP(=O)(O)OCCCCCCCCCC(=O)NC(COCCC(=O)NCCCNC(=O)CCCCOC2OC(CO)C(O)C(O)C2NC(C)=O)(COCCC(=O)NCCCNC(=O)CCCCOC2OC(CO)C(O)C(O)C2NC(C)=O)COCCC(=O)NCCCNC(=O)CCCCOC2OC(CO)C(O)C(O)C2NC(C)=O)C[C@H]1C(=O)NCc1ccc(-c2scnc2C)cc1)C(C)(C)C (some centres unmarked) [WG-1 (00300639)] | – | about 9.2 times | 21.3 | 18 | 677 (≈ 1770 µg/mL) | 0.93 | 0.72 | 0.31 | 0.16 | 0.13 | –
5 | COc1cc2nccc(Oc3ccc(NC(=O)NC4CC4)c(Cl)c3)c2cc1C(=O)NCCCCCCC(=O)N[C@H](C(=O)N1C[C@H](OP(=O)(O)OCCCCCCCCCC(=O)NC(CNC(=O)CCCCCCOC2OC(CO)C(O)C(O)C2NC(C)=O)CNC(=O)CCCCCCOC2OC(CO)C(O)C(O)C2NC(C)=O)C[C@H]1C(=O)NCc1ccc(-c2scnc2C)cc1)C(C)(C)C (some centres unmarked) [WG-2(00300629)] | – | WG-2 is about 8.3 times | 29.5 | 21.4 | 603 (≈ 1180 µg/mL) | – | – | – | – | – | –
6 | COc1cc2nccc(Oc3ccc(NC(=O)NC4CC4)c(Cl)c3)c2cc1C(=O)NCCCCCCC(=O)N[C@H](C(=O)N1C[C@H](O)C[C@H]1C(=O)NCc1ccc(-c2scnc2C)cc1)C(C)(C)C [WGint4 (003006)] | – | – | – | 150 | 31 (≈ 30 µg/mL) | 0.97 | 0.97 | 0.84 | 0.65 | 0.22 | 211
